In patent publication US20070286822A1, “Compounds for the Treatment of Periodontal Disease” (ANACOR PHARMACEUTICALS INC., priority 2006, published 2007):

Experiments:
TNF-α = assay: Pro-inflammatory cytokines: THP-1 cells, LPS, TNF-α; assay type: cell-based; conditions: Homo sapiens, 24 hr, read-out: TNF-α (anti-inflammatory data, pro-inflammatory cytokine)
Method: (§1) Anti-inflammatory data for 3-hydroxypyridine-2-carbonyloxy-bis(3-chloro-4-methylphenyl)-borane
(§2) Pro-inflammatory cytokines: THP-1 cells, LPS@ […], 24 hr

IL-1β = assay: Pro-inflammatory cytokines: THP-1 cells, LPS, IL-1β; assay type: cell-based; conditions: Homo sapiens, 24 hr, read-out: IL-1β (anti-inflammatory data, pro-inflammatory cytokine)
Method: as §1, §2

IL-2 = assay: TH1 cytokines: PBMC, PHA, IL-2; assay type: cell-based; conditions: 24 h, read-out: IL-2 (anti-inflammatory data, TH1 cytokine)
Method: as §1
(§3) TH1 cytokines: PBMC, PHA@ […], 24 h

IL-4 = assay: TH2 cytokines: PBMC, PHA, IL-4; assay type: cell-based; conditions: 24 h, read-out: IL-4 (anti-inflammatory data, TH2 cytokine)
Method: as §1
(§4) TH2 cytokines: PBMC, PHA@ […], 24 h

IL-6 = assay: Pro-inflammatory cytokines: THP-1 cells, LPS, IL-6; assay type: cell-based; conditions: Homo sapiens, 24 hr, read-out: IL-6 (anti-inflammatory data, pro-inflammatory cytokine)
Method: as §1, §2

IL-10 = assay: TH2 cytokines: PBMC, PHA, IL-10; assay type: cell-based; conditions: 24 h, read-out: IL-10 (anti-inflammatory data, TH2 cytokine)
Method: as §1, §4

IL-13 = assay: TH2 cytokines: PBMC, PHA, IL-13; assay type: cell-based; conditions: 24 h, read-out: IL-13 (anti-inflammatory data, TH2 cytokine)
Method: as §1, §4

IL-5 = assay: TH2 cytokines: PBMC, PHA, IL-5; assay type: cell-based; conditions: 24 h, read-out: IL-5 (anti-inflammatory data, TH2 cytokine)
Method: as §1, §4

IFN-g = assay: TH1 cytokines: PBMC, PHA, IFN-g; assay type: cell-based; conditions: 24 h, read-out: IFN-g (anti-inflammatory data, TH1 cytokine)
Method: as §1, §3

IL-3 = assay: Regulatory cytokine: PBMC, PHA, IL-3; assay type: cell-based; conditions: 24 h, read-out: IL-3 (anti-inflammatory data, regulatory cytokine)
Method: as §1
Regulatory cytokine: PBMC, PHA@ […], 24 h

IL-8 = assay: Pro-inflammatory cytokines: THP-1 cells, LPS, IL-8; assay type: cell-based; conditions: Homo sapiens, 24 hr, read-out: IL-8 (anti-inflammatory data, pro-inflammatory cytokine)
Method: as §1, §2

Row | SMILES | melting point | also measured
1 | Cc1ccc(B(OC(=O)c2ncccc2O)c2ccc(C)c(Cl)c2)cc1Cl [3-hydroxypyridine-2-carbonyloxy-bis(3-chloro-4-methylphenyl)-borane] | – | IC50 (TNF-α): 2.7 µM; IC50 (IL-1β): 1 µM; IC50 (IL-2): > 25 µM; IC50 (IL-4): > 25 µM; IC50 (IL-6): 5.3 µM; IC50 (IL-10): 14.5 µM; IC50 (IL-13): > 10 µM; IC50 (IL-5): 9.3 µM; IC50 (IFN-g): > 25 µM; IC50 (IL-3): > 10 µM; IC50 (IL-8): 9.6 µM
2 | Fc1ccc2c(c1)COB2c1ccsc1 [compound 13, 1,3-Dihydro-5-fluoro-1-(thiophen-3-yl)-2,1-benzoxaborole] | 33 to 35 °C | –
3 | Cc1cscc1B1OCc2cc(F)ccc21 [compound 14, 1,3-Dihydro-5-fluoro-1-(4-methylthiophen-3-yl)-2,1-benzoxaborole] | 51 to 53 °C | –
4 | Fc1ccc2c(c1)COB2c1cccnc1 [compound 15, 3-(1,3-Dihydro-5-fluoro-2,1-benzoxaborol-1-yl)pyridine] | 210 to 212 °C | –

Further lines, with some results ahead:

Row | melting point | SMILES | also measured
5 | 157 to 161 °C | OB1OCc2ccc(Sc3ccc(Cl)cc3)cc21 [C88, 6-(4-chlorophenylthio)benzo[c][1,2]oxaborol-1(3H)-ol] | –
6 | 154 to 161 °C | [O-][S+](c1ccc(Cl)cc1)c1ccc2c(c1)B(O)OC2 (centres unmarked) [C89, 6-(4-chlorophenylsulfinyl)benzo[c][1,2]oxaborol-1(3H)-ol] | –
7 | 157 to 163 °C | O=S(=O)(c1ccc(Cl)cc1)c1ccc2c(c1)B(O)OC2 [C90, 6-(4-chlorophenylsulfonyl)benzo[c][1,2]oxaborol-1(3H)-ol] | –
8 | 142 to 152 °C | O=S(=O)(c1ccccc1)N(c1ccc2c(c1)COB2O)S(=O)(=O)c1ccccc1 [C91, N-(1-hydroxy-1,3-dihydrobenzo[c][1,2]oxaborol-5-yl)-N-(phenylsulfonyl)benzenesulfonamide] | –
9 | 111 to 113 °C | OB1OCc2ccc(Sc3ccc(C(F)(F)F)cc3)cc21 [C92, 6-(4-(trifluoromethyl)phenylthio)benzo[c][1,2]oxaborol-1(3H)-ol] | –
10 | 79 to 88 °C | [O-][S+](c1ccc(C(F)(F)F)cc1)c1ccc2c(c1)B(O)OC2 (centres unmarked) [C93, 6-(4-(trifluoromethyl)phenylsulfinyl)benzo[c][1,2]oxaborol-1(3H)-ol] | –
11 | 117 to 120 °C | CSc1ccc(Sc2ccc3c(c2)B(O)OC3)cc1 [C94, 6-(4-(methylthio)phenylthio)benzo[c][1,2]oxaborol-1(3H)-ol] | –
12 | 139 to 144 °C | Cc1ccc(Sc2ccc3c(c2)B(O)OC3)cc1 [C95, 6-(p-tolylthio)benzo[c][1,2]oxaborol-1(3H)-ol] | –
13 | 147 to 150 °C | N#Cc1cccc(COc2ccc3c(c2)COB3O)c1 [C96, 3-((1-hydroxy-1,3-dihydrobenzo[c][1,2]oxaborol-5-yloxy)methyl)benzonitrile] | –
